Measured values as given in patent US20260216239A1 (Arizona Board of Regents on Behalf of the University of …, priority 2020, published 2026).
Entries after “also recorded” stand apart in the source; their conditions may differ.

System: Pseudonaja textilis venom
Experiment: Thrombelastography in human plasma of venom procoagulant activity after isolated exposure of venom to compounds
Assay type: biochemical
Conditions: for maximum rate of thrombus generation (MRTG) / total thrombus generation (TTG), clot strength: 100 μM CORM-3, 100 μM RuCl3 or both; for maximum rate of thrombus generation (MRTG) / total thrombus generation (TTG), clot strength / time to maximum rate of thrombus generation (TMRTG): venom 0.1 μg/ml in plasma; for time to maximum rate of thrombus generation (TMRTG): venom exposed 5 min in PBS to 100 μM CORM-3, 100 μM RuCl3 or both
Procedure: […] A sample of each of these venom mixtures was then placed into human plasma (0.1 μg/ml final concentration of venom), with coagulation determined by thrombelastography until final clot strength stabilized.
All venom solutions without or with chemical additions in isolation were added as a 1% addition to the plasma mix used in our thrombelastographic system (see, Nielsen, V. G.; et al., Biometals 2016, 29, 913-919; Nielsen, V. G.; Losada, P. A. Basic Clin. Pharmacol. Toxicol. 2017, 120, 207-212; Nielsen, V. G.; Frank, N. J. Thromb. Thrombolysis 2019, 47, 533-539; Nielsen, V. G.; Bazzell, C. M. J. Thromb. Thrombolysis 2017, 43, 203-208; Nielsen, V. G.; Matika, R. W. Hum. Exp. Toxicol. 2017, 36, 727-733; Nielsen, V. G.; et al., Toxins 2018, 10, 322; Nielsen, V. G.; et al., Biometals 2018, 31, 51-59; Nielsen, V. G.; Frank, N. et al., Biometals 2018, 31, 951-959; Nielsen, V. G.; et al., Toxins 2019, 11, 94; Nielsen, V. G.; Frank, N. Hum Exp. Toxicol. 2019, 38, 216-226; Nielsen, V. G. J. Thromb. Thrombolysis 2019, 48, 256-262; Nielsen, V. G.; et al., Blood Coagul. Fibrinolysis 2019, 30, 379-384; Nielsen, V. G. J. Thromb. Thrombolysis 2019, 47, 73-79; Gessner, G.; et al., Eur. J. Pharmacol. 2017, 815, 33-41). […] The thrombelastographic model describes coagulation kinetics with the following three variables: time to maximum thrombus generation (TMRTG, minutes—a measure of time to onset of coagulation), maximum rate of thrombus generation (MRTG, dynes/cm^2/s—a measure of the velocity of clot growth) and total thrombus generation (TTG, dynes/cm^2—a measure of clot strength).
The volumes of subsequently described plasmatic and other additives summed to a final volume of 360 μL. Samples were composed of 320 μL of plasma; 16.4 μL of PBS, 20 μL of 200 mM CaCl2), and 3.6 μL of PBS, RuCl3, or venom solution mixture, which were pipetted into a disposable cup in a Thrombelastograph® hemostasis system (Model 5000, Haemonetics Inc., Braintree, MA, USA) at 37° C., and then rapidly mixed by moving the cup up against and then away from the plastic pin five times. The PBS, RuCl3, or venom solution mixtures was always the last constituent added prior to mixing and data collection. The following viscoelastic parameters described previously (see, Nielsen, V. G.; et al., Biometals 2016, 29, 913-919; Nielsen, V. G.; Losada, P. A. Basic Clin. Pharmacol. Toxicol. 2017, 120, 207-212; Nielsen, V. G.; Frank, N. J. Thromb. Thrombolysis 2019, 47, 533-539; Nielsen, V. G.; Bazzell, C. M. J. Thromb. Thrombolysis 2017, 43, 203-208; Nielsen, V. G.; Matika, R. W. Hum. Exp. Toxicol. 2017, 36, 727-733; Nielsen, V. G.; et al., Toxins 2018, 10, 322; Nielsen, V. G.; et al., Biometals 2018, 31, 51-59; Nielsen, V. G.; Frank, N. et al., Biometals 2018, 31, 951-959; Nielsen, V. G.; et al., Toxins 2019, 11, 94; Nielsen, V. G.; Frank, N. Hum Exp. Toxicol. 2019, 38, 216-226; Nielsen, V. G. J. Thromb. Thrombolysis 2019, 48, 256-262; Nielsen, V. G.; et al., Blood Coagul. Fibrinolysis 2019, 30, 379-384; Nielsen, V. G. J. Thromb.

Molecule	procoagulant activity of venom (venom exposed 5 min to 100 μM CORM-2 in 5% human albumin, venom 100 ng/mL in plasma)	procoagulant activity of venom (venom exposed 5 min to 100 μM CORM-2 in PBS, venom 100 ng/mL in plasma)	maximum rate of thrombus generation (MRTG)	total thrombus generation (TTG), clot strength	time to maximum rate of thrombus generation (TMRTG)	procoagulant activity of venom (venom exposed 5 min to 100 μM RuCl3 in PBS, venom 100 ng/mL in plasma (Example III))
[C-]#[O+].[C-]#[O+].[C-]#[O+].[C-]#[O+].[C-]#[O+].[C-]#[O+].[Cl][Ru][Cl].[Cl][Ru][Cl] [CORM-2, tricarbonyldichlororuthenium(II) dimer]	uninhibited	significantly attenuated	–	–	–	–
[Cl][Ru]([Cl])[Cl] [RuCl3, ruthenium(III) chloride]	–	–	significantly decreased; also recorded: decrease	enhanced; also recorded: increase	significantly increased; also recorded: significant increase	significant loss of procoagulant activity
Tricarbonylchloro(glycinato)ruthenium [CORM-3]	–	–	significantly decreased; also recorded: decrease	enhanced; also recorded: increase	significantly increased; also recorded: significant increase	–
